In US6372883B1, “Antiviral medicaments” (Hoffmann-La Roche Inc., priority 1998, dated 2002):

target: HCV proteinase (MBP-NS3″Gly 12-NS4A enzyme); assay: HCV proteinase inhibition: cleavage of quenched fluorescence substrate NS4A/B.F peptide by MBP-NS3″Gly 12-NS4A enzyme; assay type: biochemical; conditions: 10 μM NS4A/B.F peptide, pH 8.5, 10% DMSO, room temperature for 60 minutes; IC50 by manual graph analysis
From the text: As mentioned earlier, the compounds of formula I and salts of acidic compounds of formula I with bases are inhibitors of proteases of viral origin.
Construction of Plasmid for the Expression of MBP-NS3″Gly 12-NS4A Enzyme in E. coli
The nucleotide sequence of this expression plasmid is given in SEQ ID NO:1 appended hereto and the amino acid sequence of its expression product is given in SEQ ID NO:2 appended hereto. It is based on the pMAL®-c2 vector supplied by New England Biolabs, Inc. (32 Tozer Rd., Beverly, Mass., USA). The principle of the construction was to create an in-frame fusion of the maltose binding protein (MBP) gene supplied by the pMAL-c2 vector, and sequences of the HCV genome necessary for NS3 proteinase activity. These HCV sequences were inserted between the EcoRI and HindIII sites of the pMAL-c2 polylinker (positions 2695 and 3556 respectively of the sequence given in SEQ ID NO:1).
HCV sequences were derived from plasmids pDS 3348-4045 and pBFK 3348-6062, described by Bartenschlager et al, 1993 (Journal of Virology, 67, 3835-3844). Regions encompassing the NS3 proteinase domain (amino acids 1007-1219) and the NS4A domain (amino acids 1658-1711) were isolated and inserted into the pMAL-c2 vector using standard recombinant DNA techniques, including the PCR amplification of required sequences. Between the NS3 and NS4A domains, a linker region was constructed using synthetic oligonucleotides (positions 3343-3390; amino acids 606-621). The resulting plasmid was used to transform E. coli (strain MC1061) cells and expression of the MBP-NS3″Gly 12-NS4A enzyme was induced as described below.
Protein Expression and Purification
E. coli (strain MC1061) cells transformed with the foregoing plasmid were grown in Luria broth containing ampicillin (100 μg/ml) at 37° C. The cells were grown until an optical density of 0.5 at 600 nm had been reached and enzyme expression was then induced by adding 1 mM isopropylthiogalactoside and incubating at 37° C. for a further 3 hours. The cells were harvested by centrifugation and stored at −80° C.
A pellet from […] bacterial culture was resuspended in E.coli lysis buffer (20 mM Tris HCl, pH 7.5, containing 150 mM NaCl, 1 mM EDTA and 10 mM dithiothreitol) and cell lysis was achieved by two passages through a French Pressure cell. The clear supernatant obtained by centrifugation (18000 g, 30 minutes) was then applied to an amylose resin column (4×1 cm) (New England Biolabs) which had been equilibrated with ice-cold 50 mM Tris HCl, pH 8.5, containing 200 mM NaCl, 1 mM dithiothreitol and 5% glycerol. The column was washed thoroughly with the equilibration buffer and bound protein was eluted using the equilibration buffer containing 10 mM maltose. Fractions of 1 ml were collected, with fractions containing the enzyme being pooled and stored at −80° C. Enzyme concentration was assayed by the method of M. B. Bradford, Analytical Biochemistry, 1976, vol. 72, p.248.
Compounds of formula I (routinely prepared as stock solutions in DMSO) were assayed for their ability to inhibit the cleavage of a quenched fluorescence substrate [NS4A/B.F peptide (N-[4-[4-(dimethylamino)phenylazo]benzoyl]-L-α-aspartyl-L-(α-glutamyl-L-methionyl-L-α-glutamyl-L-α-glutamyl-L-cysteinyl-L-alanyl-L-seryl-L-histidyl-N5-[2-(5-sulpho-1-naphthylamino)ethyl]-L-glutamin-amide); Wilkinson et al, Society for General Microbiology Meeting, University of Warwick, England, Mar. 28, 1996] based on the NS4A/4B cleavage site by enzyme MBP-NS3{acute over (ii)}Gly 12-NS4A in microtitre plates as follows:
The enzyme (0.4-0.6 μg) was added to a mixture (200 μl final volume) containing 50 mM Tris HCl, pH 8.5, with 1 mM NaCl, 0.1 mM EDTA, 1 mM dithiothreitol, 0.1% Triton X-100, 10 μM NS4A/B.F peptide and the test compound of formula I prepared as a stock solution in DMSO and added to give a 10% final concentration of DMSO. […]

Row | Molecule | IC50
1 | 2(RS)-[[N-[N-[N-[N-[N-(3-Carboxypropionyl)-L-α-aspartyl-L-α-glutamyl]-2-methyl-L-phenylalanyl]-3-methyl-L-valyl]-O-benzyl-L-tyrosyl]amino]-4,4,4-trifluorobutyraldehyde | 200 nM
2 | 2(RS)-[[N-[N-[N-[N-[N-(9-Hydroxy-9-fluorenyl)carbonyl]-L-seryl]-O-benzyl-D-seryl]-2-methyl-L-phenylalanyl]-3-methyl-L-valyl]-L-leucyl]-amino]-4,4,4-trifluorobutyraldehyde | 20 nM
3 | 2(RS)-[[N-[N-[N-[N-[N-(3-Carboxypropionyl)-L-α-aspartyl-O-benzyl-L-α-glutamyl]-2-methyl-L-phenylalanyl]-3-methyl-L-valyl]-L-leucyl]amino]-4,4,4-trifluorobutyraldehyde | 110 nM
4 | 1(RS)-[[N-[N-[N-[N-[N-(4-Acetamidobutyryl)-L-α-aspartyl-L-α-glutamyl]-2-methyl-L-phenylalanyl]-3-methyl-L-valyl]-L-leucyl]-amino]propylboronic acid | 230 nM
5 | Cc1ccccc1C[C@H](NC(=O)[C@H](NC(=O)[C@H](CS)NC(=O)CCC(=O)O)C(C)C)C(=O)N[C@H](C(=O)N[C@@H](CC(C)C)C(=O)NC(C=O)CC(F)(F)F)C(C)(C)C (mixture of isomers) [D, 2(RS)-[[N-[N-[N-[N-[N-(3-Carboxypropionyl)-L-cysteinyl]-D-valyl]-2-methyl-L-phenylalanyl]-3-methyl-L-valyl]-L-leucyl]amino]-4,4,4-trifluorobutyraldehyde] | 140 nM
6 | 2(RS)-[[N-[N-[N-[N2-(N-Acetyl-L-tyrosyl)-N6-nitro-L-arginyl]-2-methyl-L-phenylalanyl]-3-methyl-L-valyl]-L-leucyl]amino]-4,4,4-trifluorobutyraldehyde | 44 nM
